From PubChem BioAssay AID588404 (Broad Institute, 2011)
Records with an inconclusive call do not appear. Activity calls are given as the source filed them.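 The calls were made as follows: active = every replicate run active, meaning lowered signal with potency within ten times the top valid dose; inconclusive = runs neither all active nor all inactive; inactive = all replicate runs inactive, including opposite-direction effects.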

Tested on: S. cerevisiae expressing HsHsp90, growth, BacTiter-Glo 48 h
Assay: growth inhibition of HsHsp90-dependent yeast, dose response, counter-screen for P. falciparum Hsp90 inhibitor project, plate reader, dry powder samples (AID 588404)
Conditions: not given

Point of comparison: `O=S(=O)(NC1CC2CCC1C2)c1ccc(Cl)cc1` (centres undefined), AC50 7.89 µM. Against it:
- CCN(CC)c1ccc(/C=C2/SC(=O)N(C(C)C)C2=O)o1 — 1.6-fold higher, 12.3 µM
- O=C(O)/C=C/c1cn(-c2ccccc2)nc1-c1cc2ccccc2o1 — within 1.5-fold, 9.22 µM
- CCOc1cc(S(=O)(=O)NC2CCCCCC2)ccc1F — 3.4-fold higher, 26.6 µM
- O=C1C(Cl)=C(Oc2ccccc2)C(=O)c2ccccc21 — lower, < 2.35 µM
- O=S(=O)(NC1CCCCCC1)c1ccc(Br)s1 — within 1.5-fold, 6.82 µM
- O=S(=O)(/C=C/c1ccccc1)NC1CCCCCCC1 — 2.5-fold higher, 19.8 µM

Tested on: not listed separately
Assay: as above
Conditions: S. cerevisiae expressing HsHsp90, growth, BacTiter-Glo 48 h; at 150 µM (top of the series)

For `O=C1C(Cl)=C(NCCc2ccccc2)C(=O)c2ccccc21`, the activity change, negative = inhibition was 20.9% (inactive).
With `COc1ccc2c(c1)[nH]c1c(C)nccc12` the activity change, negative = inhibition was 9.79% (inactive).
